Read-outs that look alike come from different tables or passages of the source.
What was measured:
Hartley male guinea pigs = assay: Late asthmatic model in guinea pigs (ovalbumin sensitization and challenge, respiratory function sGaw); format: in vivo, guinea pig
Method: Experiment 2 Evaluation of the Compound in Late Asthmatic Model in Guinea Pigs
The evaluation test was carried out using the compound obtained in Example 1.
Hartley male guinea pigs (purchased from Japan SLC) were prefed for about 1 week after purchasing them, and exposed to a 2% (w/v) solution of ovalbumin (OA) in saline solution in a plastic box (4 animals/box) for 5 minutes and made them inhale it by using an ultrasonic nebulizer (OMRON NE-U12, conditions: maximum amount of atomization and maximum airflow) for sensitization (Day 0). The animals were subjected to the same procedures on the 7th day. On the 14th and 15th days, each one animal was made to inhale a 2% OA for 5 minutes for antigen-challenge. One hour prior to the antigen-challenge, pyrilamine maleate (antihistamic agent; dissolved in saline solution, 10 mg/2 ml/kg) was intraperitoneally administered to each animal. A test compound was suspended in a 0.5% methyl cellulose (MC), and administered intraperitoneally twice to each animal at 2 hours prior to, and 6 hours after the antigen-challenge at a dose of 100 mg/5 ml/kg. To the control group, a 0.5% MC was administered in the same manner instead of a test compound.
The measurement and analysis of the respiratory function were carried out by a modified method of the method of Hutson et al., (cf., Penny A. Hutson et al., Am Rev Respir Dis 1988 137, 548-557). Before the antigen-challenge (before the administration of the drug) and 5 minutes, and 3, 17 and 20 hours after the antigen-challenge, the respiratory function of each animal was measured, and the wave pattern was recorded using Maclab Chart v 3.4 (AD instruments), and the analysis of the respiratory function was carried out later by using thereof. The specific airway conductance (sGaw) was calculated, and the degree of the improvement of the respiratory function was evaluated by using it as an index.

[1] = system: leukocyte infiltration into the airway; assay: Leukocyte infiltration into the airway in the guinea pig models (BALF cell counts); format: in vivo
Method: Evaluation of the Compound in the Leukocyte Infiltration into the Airway in the Guinea Pig Models:
In the same manner to in Experiment 2, the sensitization, the antigen challenge, and the administration of pyrilamine maleate and a medicament were carried out.
The recovery of bronchoalveolar lavage fluid (BALF) was carried out at 24 hours after the antigen challenge. Namely, the animals were anesthetized by intraperitoneal administration of pentbarbital (50 mg/ml) at a dose of 0.5 ml per animal, and the animals were subjected to an abdominal operation after sufficiently anesthetized. The perineal abdominal aorta was cut and the animals were killed by venesection. The diaphragm was incised and the neck was also incised to expose the trachea. After the trachea was cut, a cannula was inserted thereto, and an ice-cooled saline solution (5 ml) was injected by using a 5 ml syringe. Then, the injection and the suction were repeated three times by using the same solution for recovery. The fluid was collected and filtered through a stainless mesh, and collected in a tube on the ice. These procedures were repeated twice, and the recovery fluid was collected into the same tube (cases wherein the fluid volume was not more than 7 ml were not employed as data).
After the recovery, the fluid volume to be recovered was measured with the eye, and the fluid was centrifuged at 1500 rpm at 4° C. for 3 minutes, and the supernant was discarded. The residue was subjected to hemolysis under hypooncotic conditions. The mixture was centrifuged at 1500 rpm at 4° C. for 3 minutes, and the supernatant was discarded. The cells thus collected were suspended in a phosphoric buffered saline solution (PBS (−))(1 ml) containing a 0.5% BSA. The total number of cells were counted in this suspension by an automated leukocyte counter. After the measurement, a slide preparation was prepared by using Cytospin, which was further stained with a Diff Quick Stainning Kit.

[2] = molecular target: T1, SMBS on rat lung membranes (Rattus norvegicus, UniProt A0A8I6A822); assay: Receptor binding of the compound in rat lung membranes ([125I]-iodo-cyanopindolol ligand binding assay; Experiments 1 and 4); conditions: rat lung membranes, read-out: Binding Activity (30 μM)
T1 construct: from tissue; host or cells: rat lung membranes (SD male rats)
Method: Evaluation Test on Receptor Binding of the Compound in Rat Lung Membranes:
This experiment was carried out according to the method disclosed in Sugasawa et al., (Sugasawa, T. et al., J. Biol. Chem., 272, 21244-21252(1997)).
Preparation of Rat Lung Membranes
The air tube and blood vessels were removed from the lung excised from SD male rats (7-weeks old when used, purchased from Charles River Japan, Inc.), and the lung was chopped, and washed with ice-cold tris-saline buffer (10 mM Tris-HCl, 154 mM sodium chloride, pH 7.4). The lung was homogenized by PHYSCOTRON (maximum speed: 1 minute) in a buffer for homogenization (tris-saline buffer containing 1 mM ethylenediaminetetraacetate (EDTA), 1 mM 4-(2-aminoethyl)-benzenesulfonyl fluoride (AEBSF), 5 μg/ml aprotinin, 5 μg/ml leupeptin) under ice-cooling. The mixture was centrifuged at a low speed (1500×g, 20 minutes, 4° C.), and the supernatant was super-centrifuged (100000×g, 20 minutes, 4° C.). The pellets thus obtained were suspended in tris-saline buffer, and kept at −80° C. The concentration of protein was measured by a Protein Assay Kit manufactured by Bio-Rad using bovine serum albumin (BSA) as standard.
To each well of a protein-non-adsorbent round-bottom 96-well assay plate (purchased from IWAKI GLASS CO., LTD.) was added tris-saline buffer (200 μl) containing 1 nM [^125I]-iodo-cyanopindolol (purchased from Amarsham), 10 μM serotonin, 20 μM dl-propranol, 10 μM phentoramine, 1.1 mM ascorbic acid and 100 μg lung membranes, and the mixture was mixed well by pipetting, and the plate was incubated at 37° C. for 30 minutes. Test compounds were dissolved in 100% dimethylsulfoxide, and added to the plate in an amount of 2 μl (final concentration of DMSO: 1%). In order to obtain non-specific binding, L-threo-3-(3,4-dihydroxyphenyl)-N-[3-(4-fluorophenyl)propyl]-serinepyrrolidinamide was added at a final concentration of 100 μM instead of test compound. During this period, 0.3% polyethyleneimine (PEI)/tris-saline buffer (100 μl) was added to a multiscreen plate (96-well B-glassfiber, milipore Cat. No. MAFB NOB10) and the plate was incubated for more than 30 minutes. The plate was washed by vacuum filtration (by adding ice-cold tris-saline buffer (200 μl) and then vacuum filtration), and the reaction solution on the 96-well assay plate was washed by vacuum filtration onto the multiscreen plate for four times. The B-glassfiber paper filter at the bottom of the multiscreen plate was punched out, and the γ-ray amount of [^125I]-iodo-cyanopindolol being trapped onto the paper filter was measured as binding amount. The binding amount in the presence of DMSO (final concentration: 1%) was regarded as total binding, and the binding in the presence of L-threo-3-(3,4-dihydroxyphenyl) -N-[3-(4-fluorophenyl)-propyl]serinepyrrolidinamide was regarded as non-specific binding. The value which is calculated by subtracting non-specific binding from total binding is specific binding. The binding activity of the compound can be calculated by the following equation, and expressed in a ratio of inhibiting the specific binding of [^125I]-iodo-cyanopindorol to SMBS on rat lung membranes.
In the same manner to in Experiment 1, the receptor binding assay was carried out on the present compounds by using the rat lung membranes.

[3] = BALF recovered at 24 hours after the antigen challenge, guinea pig
[4] = versus control group, BALF 24 hours after antigen challenge, 100 mg/5 ml/kg i.p. twice
[5] = Table 44, concentration tested 30 μM, Experiment 4
[6] = ratio of inhibiting the specific binding of [125I]-iodo-cyanopindolol, test concentration 30 μM

T1 sequence (A0A8I6A822 27-587): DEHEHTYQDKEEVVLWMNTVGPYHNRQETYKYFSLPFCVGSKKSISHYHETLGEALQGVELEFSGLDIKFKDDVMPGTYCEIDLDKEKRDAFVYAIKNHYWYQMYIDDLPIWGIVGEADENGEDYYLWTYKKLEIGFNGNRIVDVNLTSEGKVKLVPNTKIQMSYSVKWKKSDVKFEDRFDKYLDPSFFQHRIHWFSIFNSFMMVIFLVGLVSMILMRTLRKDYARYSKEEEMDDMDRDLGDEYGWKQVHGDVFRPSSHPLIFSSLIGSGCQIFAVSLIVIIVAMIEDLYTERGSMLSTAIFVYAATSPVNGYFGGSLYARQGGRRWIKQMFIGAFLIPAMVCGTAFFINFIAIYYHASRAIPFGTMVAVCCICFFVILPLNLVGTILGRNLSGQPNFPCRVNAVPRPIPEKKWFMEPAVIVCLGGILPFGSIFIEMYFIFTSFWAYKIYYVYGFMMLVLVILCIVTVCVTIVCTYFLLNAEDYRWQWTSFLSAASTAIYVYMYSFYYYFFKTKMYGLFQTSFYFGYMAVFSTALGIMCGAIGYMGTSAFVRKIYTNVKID

## Cl.NCCCn1c(-c2ccc(Br)cc2)csc1=Nc1ccccc1
other
  melting point: 241 to 242 °C

## CN(C)CCCn1c(-c2ccc(Br)cc2)csc1=Nc1ccccc1 [Example 1, N-{4-(4-bromophenyl)-3-[3-(dimethylamino)propyl]thiazol-2(3H)-ylidene}aniline]
Hartley male guinea pigs; 20-hr value, versus control group, 100 mg/5 ml/kg i.p. twice
  inhibitory rate of LAR (from rate of change of sGaw): about 60%
Hartley male guinea pigs; 5 minutes after antigen challenge (IAR), 100 mg/5 ml/kg i.p. 2 h prior to and 6 h after challenge
  Rate of change of sGaw, 5 minutes: −33.8 ± 6.8%
Hartley male guinea pigs; 20 hours after antigen challenge (LAR), 100 mg/5 ml/kg i.p. 2 h prior to and 6 h after challenge
  Rate of change of sGaw, 20 hours: −14.2±15.0%
Hartley male guinea pigs; result in words, 100 mg/5 ml/kg i.p. twice
  inhibition of IAR induced immediately after the antigen challenge: tendency of inhibiting the IAR
[1]; [3]
  Number of eosinophils (×10^5): 13.8 ± 5.1 ×10^5
  Number of lymphocytes (×10^5): 2.0 ± 0.6 ×10^5
  Total number of cells (×10^5): 62.1 ± 8.6 ×10^5
[1]; [4]
  reduction of number of eosinophils in BALF: 79%
  reduction of number of lymphocytes in BALF: 70%
  reduction of total number of cells in BALF: 82%
[2]; Table 37, compound concentration 30 μM, [125I]-iodo-cyanopindolol, Experiment 1
  inhibition at 30 µM: 61.3%

## COc1ccc(C(=O)/N=c2\scc(-c3ccc(OC(F)(F)F)cc3)n2CCCNC(C)=O)c(OC)c1 [Example 446, N-[3-[3-(Acetoamino)propyl]-4-[4-(trifluoromethoxy)phenyl]-1,3-thiazol-2(3H)-ylidene]-2,4-dimethoxybenzamide]
other
  melting point: 131 to 132 °C
[2]; [5]
  inhibition at 30 µM: 97%

## COc1ccc(C(=O)N=c2scc(CNS(=O)(=O)c3ccc(C)cc3)n2CCCNC(C)=O)c(OC)c1 [Example 473, N-[3-[3-(Acetylamino)propyl]-4-({[(4-methylphenyl)sulfonyl]amino}-methyl)thiazol-2(3H)-ylidene]-2,4-dimethoxybenzamide]
[2]; [5]
  inhibition at 30 µM: 33%

## COc1ccc(C(=O)/N=c2\scc(-c3ccc(OC(F)(F)F)cc3)n2CCCNC(=O)CN(C)C)c(OC)c1 [Example 482]
[2]; [6]
  inhibition at 30 µM: 85%

## CCNC(=O)NCCCn1c(-c2ccc(OC(F)(F)F)cc2)cs/c1=N\C(=O)c1ccc(OC)cc1OC [Example 484]
[2]; [6]
  inhibition at 30 µM: 97%

## CCNC(=S)NCCCn1c(-c2ccc(OC(F)(F)F)cc2)cs/c1=N\C(=O)c1ccc(OC)cc1OC [Example 494]
[2]; [6]
  inhibition at 30 µM: 65%

## CCNC(=O)NCCCn1c(-c2ccc(F)cc2)cs/c1=N\C(=O)c1ccc(Cl)cc1OC [Example 496]
[2]; [6]
  inhibition at 30 µM: 80%

## COc1ccc(C(=O)/N=c2\scc(-c3ccc(OC(F)(F)F)cc3)n2CCCNC(=O)N(C)C)c(OC)c1 [Example 508]
[2]; [6]
  inhibition at 30 µM: 102%

## COc1ccc(C(=O)/N=c2\scc(-c3ccc(OC(F)(F)F)cc3)n2CCCNC(=O)N2CCOCC2)c(OC)c1 [Example 509]
[2]; [6]
  inhibition at 30 µM: 103%

## CCOC(=O)CCNCCCn1c(-c2ccc(OC(F)(F)F)cc2)cs/c1=N\C(=O)c1ccc(OC)cc1OC [Example 520]
[2]; [6]
  inhibition at 30 µM: 99%

## COc1ccc(C(=O)/N=c2\scc(-c3ccc(OC(F)(F)F)cc3)n2CCCNCC(N)=O)c(OC)c1 [Example 521]
[2]; [6]
  inhibition at 30 µM: 74%

## COc1ccc(C(=O)/N=c2\scc(-c3ccc(OC(F)(F)F)cc3)n2CCCNCC(=O)NCC(=O)O)c(OC)c1 [Example 523]
[2]; [6]
  inhibition at 30 µM: 73%

## COc1ccc(C(=O)/N=c2\scc(-c3ccc(OC(F)(F)F)cc3)n2CCCNCC(=O)O)c(OC)c1 [Example 531]
[2]; [6]
  inhibition at 30 µM: 32%

## COc1ccc(C(=O)/N=c2\scc(-c3ccc(OC(F)(F)F)cc3)n2CCCNC(=N)N)c(OC)c1 [Example 534]
[2]; [6]
  inhibition at 30 µM: 87%

## COc1ccc(C(=O)/N=c2\scc(-c3ccc(OC(F)(F)F)cc3)n2CCCNC(=N)N2CCCCC2)c(OC)c1 [Example 535]
[2]; [6]
  inhibition at 30 µM: 108%

## CCS(=O)(=O)NCCCn1c(-c2ccc(OC(F)(F)F)cc2)cs/c1=N\C(=O)c1ccc(OC)cc1OC [Example 536]
[2]; [6]
  inhibition at 30 µM: 67%

Reference: patent US7396842B2, “Five-membered cyclic compounds” (Dianippon Sumitomo Pharma Co., Ltd., priority 2002, dated 2008)
